Results taken from paper PMC9154192 (PLoS Biology, 2022).
In brackets after ≈: the same amount, converted by molar mass. Several values for one entry are separate records, joined by “and”; a condition that tells them apart may be missing. Equal entries are not always repeated. Where two headings read alike, the source gives them in different places.

Legend:
M. tuberculosis H37Ra = experiment: microbe, parasite or virus in culture; format: cell-based, Mycobacterium tuberculosis; settings: Mycobacterium tuberculosis, H37RA
[1] = system: clinically isolated MDR, XDR, and TDR M. tuberculosis strains; experiment: microbe, parasite or virus in culture; format: cell-based; settings: Mycobacterium tuberculosis
[2] = system: XDR M. tuberculosis (KMRC 00203–00197); format: cell-based, Mycobacterium tuberculosis; settings: for log reduction (CFU): 7 days
M. tuberculosis H37Rv [3] = format: cell-based, Mycobacterium tuberculosis; settings: for RFU/200 μl (replicates1-3), single values / RFU/ml (×104) / RFU/200 μl (average): Fig 2A
XDR M. tuberculosis [4] = format: cell-based, Mycobacterium tuberculosis
M. tuberculosis H37Rv [5] = experiment: Luminescence-based microbial cell viability assay; parameters: species or system Mycobacterium tuberculosis; settings: for RLU/50ul (replicates1-3), single values / RLU/ml (×100) / RLU/50ul (average): Fig 2C
XDR M. tuberculosis [6] = experiment: Luminescence-based microbial cell viability assay; parameters: species or system Mycobacterium tuberculosis
in vitro [7] = format: cell-based; settings: human
In short: (§1)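 Testing relied on two colorimetric viability methods, WST-1 and MTT, carried out as described in prior work to measure cytotoxic effects.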

in vitro [8] = format: cell-based, murine; settings: mouse
In short: as §1

intestinal microbiome = experiment: Gut microbiome, 16s rRNA gene-based metagenomics analysis of feces; format: in vivo, BALB/c mice; settings: 30 mg/kg oral once a day for 7 days, BALB/c mice, feces
In short: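 Female BALB/c mice, six weeks old (n=6/group), received drug orally at 30 mg/kg once daily for 7 days in corn oil; vehicle controls received corn oil alone. Fecal DNA V4 16S rRNA gene amplicons were sequenced 300-bp paired-end and analyzed on EzBioCloud.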

M. aubagnense = experiment: microbe, parasite or virus in culture; format: cell-based, Mycobacterium aubagnense; settings: Mycolicibacterium aubagnense
M. bovis = experiment: microbe, parasite or virus in culture; format: cell-based; settings: Mycobacterium tuberculosis variant bovis
M. conceptionense = experiment: microbe, parasite or virus in culture; format: cell-based, Mycobacterium conceptionense; settings: Mycolicibacterium senegalense
M. fortuitum = experiment: microbe, parasite or virus in culture; format: cell-based, Mycobacterium fortuitum; settings: Mycolicibacterium fortuitum
M. gilvum = experiment: microbe, parasite or virus in culture; format: cell-based, Mycobacterium gilvum; settings: Mycolicibacterium gilvum
M. heraklionease = experiment: microbe, parasite or virus in culture; format: cell-based; settings: Mycobacterium
M. kansasii = experiment: microbe, parasite or virus in culture; format: cell-based; settings: Mycobacterium kansasii
M. kyorinense = experiment: microbe, parasite or virus in culture; format: cell-based; settings: Mycobacterium kyorinense
M. marinum = experiment: microbe, parasite or virus in culture; format: cell-based; settings: Mycobacterium marinum
M. marseiliense = experiment: microbe, parasite or virus in culture; format: cell-based; settings: Mycobacterium
M. massiliense = experiment: microbe, parasite or virus in culture; format: cell-based, Mycobacterium massiliense; settings: Mycobacteroides abscessus
M. peregrinum = experiment: microbe, parasite or virus in culture; format: cell-based, Mycobacterium peregrinum; settings: Mycolicibacterium peregrinum
M. smegmatis = experiment: microbe, parasite or virus in culture; format: cell-based, Mycobacterium smegmatis; settings: Mycolicibacterium smegmatis
M. xenopi = experiment: microbe, parasite or virus in culture; format: cell-based; settings: Mycobacterium xenopi
[9] = drug conc. 0.39, average of each replicate set
[10] = drug conc. 0.78, average of each replicate set
[11] = drug conc. 1.56, average of each replicate set

CCCCOc1ccc2cc(CN3C(=O)CC[C@H]3C(=O)OC)c3cc(OC)c(OC)cc3c2c1 [PP2S, Methyl (S)-1-((3-butoxy-6,7-dimethoxyphenanthren-9-yl)methyl)-5-oxopyrrolidine-2-carboxylate]
MIC (M. tuberculosis H37Ra): 0.4 µg/mL (≈ 0.859 µM) | MIC ([1]; TDR-1): 1.6 µg/mL (≈ 3.44 µM) | MIC ([1]; TDR-2): 0.2 µg/mL (≈ 0.43 µM) | MIC ([1]; TDR-3): 1.6 µg/mL (≈ 3.44 µM) | CFU (log) [2]: 3.65 and 3.73 | CFU (replicates1-3), single values [2]: 5500 CFU and 1100 CFU and 2900 CFU and 2700 CFU and 6500 CFU and 5100 CFU and 5400 CFU and 6100 CFU and 5320 CFU and 9100 CFU and 3200 CFU (2×) and 3600 CFU and 3300 CFU and 3400 CFU and 2100 CFU and 12800 CFU and 8170 CFU | log reduction (CFU) ([2]; at 0.8 μg/ml): 1.8 | log reduction (CFU) ([2]; at 1.6 μg/ml): 1.9 | RFU/200 μl (replicates1-3), single values (M. tuberculosis H37Rv [3]; drug conc. 0.39): 54850 RFU/200 μl and 54820 RFU/200 μl and 52200 RFU/200 μl and 52110 RFU/200 μl and 58720 RFU/200 μl and 54260 RFU/200 μl and 54210 RFU/200 μl and 54470 RFU/200 μl and 54870 RFU/200 μl | RFU/ml (×104) (M. tuberculosis H37Rv [3]; drug conc. 0.39): 27.3 RFU/ml (×104) | RFU/200 μl (average) (M. tuberculosis H37Rv [3]; [9]): 54343 RFU/200 μl and 54313 RFU/200 μl and 54847 RFU/200 μl | RFU/200 μl (replicates1-3), single values (M. tuberculosis H37Rv [3]; drug conc. 0.78): 20330 RFU/200 μl and 20390 RFU/200 μl and 21500 RFU/200 μl and 21380 RFU/200 μl and 21640 RFU/200 μl and 20670 RFU/200 μl and 20960 RFU/200 μl and 20360 RFU/200 μl and 20370 RFU/200 μl | RFU/ml (×104) (M. tuberculosis H37Rv [3]; drug conc. 0.78): 10.4 RFU/ml (×104) | RFU/200 μl (average) (M. tuberculosis H37Rv [3]; [10]): 21507 RFU/200 μl and 20663 RFU/200 μl and 20363 RFU/200 μl | RFU/200 μl (replicates1-3), single values (M. tuberculosis H37Rv [3]; drug conc. 1.56): 8330 RFU/200 μl (2×) and 8470 RFU/200 μl and 8750 RFU/200 μl and 8670 RFU/200 μl and 8690 RFU/200 μl and 8240 RFU/200 μl and 8320 RFU/200 μl and 8390 RFU/200 μl | RFU/ml (×104) (M. tuberculosis H37Rv [3]; drug conc. 1.56): 4.2 RFU/ml (×104) | RFU/200 μl (average) (M. tuberculosis H37Rv [3]; [11]): 8703 RFU/200 μl and 8297 RFU/200 μl and 8397 RFU/200 μl | concentration with significant antitubercular effect (M. tuberculosis H37Rv [3]; fluorescence-based assay): 1.56 µg/mL and 0.78 µg/mL | RFU/200 μl (replicates1-3), single values (XDR M. tuberculosis [4]): 9970 RFU/200 μl and 10020 RFU/200 μl and 9360 RFU/200 μl and 9560 RFU/200 μl and 10400 RFU/200 μl and 10740 RFU/200 μl and 10810 RFU/200 μl and 10890 RFU/200 μl and 9990 RFU/200 μl and 20170 RFU/200 μl and 19980 RFU/200 μl and 20200 RFU/200 μl and 19820 RFU/200 μl and 20260 RFU/200 μl and 22530 RFU/200 μl and 22620 RFU/200 μl and 22580 RFU/200 μl and 20070 RFU/200 μl and 37150 RFU/200 μl and 37370 RFU/200 μl and 42810 RFU/200 μl and 39680 RFU/200 μl and 39960 RFU/200 μl and 41160 RFU/200 μl and 41210 RFU/200 μl and 41220 RFU/200 μl and 37280 RFU/200 μl | concentration with significant antitubercular effect (XDR M. tuberculosis [4]): 0.39 µg/mL | RLU/50ul (replicates1-3), single values (M. tuberculosis H37Rv [5]; drug conc. 0.39): 1160 RLU/50ul and 1020 RLU/50ul and 2640 RLU/50ul and 2720 RLU/50ul and 2990 RLU/50ul and 1770 RLU/50ul and 1810 RLU/50ul and 1690 RLU/50ul and 1170 RLU/50ul | RLU/ml (×100) (M. tuberculosis H37Rv [5]; drug conc. 0.39): 377.1 RLU/ml (×100) | RLU/50ul (average) (M. tuberculosis H37Rv [5]; [9]): 2783 RLU/50ul and 1757 RLU/50ul and 1117 RLU/50ul | RLU/50ul (replicates1-3), single values (M. tuberculosis H37Rv [5]; drug conc. 0.78): 410 RLU/50ul and 270 RLU/50ul and 850 RLU/50ul (2×) and 870 RLU/50ul and 620 RLU/50ul and 650 RLU/50ul and 580 RLU/50ul and 390 RLU/50ul | RLU/ml (×100) (M. tuberculosis H37Rv [5]; drug conc. 0.78): 122.0 RLU/ml (×100) | RLU/50ul (average) (M. tuberculosis H37Rv [5]; [10]): 857 RLU/50ul and 617 RLU/50ul and 357 RLU/50ul | RLU/50ul (replicates1-3), single values (M. tuberculosis H37Rv [5]; drug conc. 1.56): 120 RLU/50ul and 160 RLU/50ul and 360 RLU/50ul and 370 RLU/50ul and 420 RLU/50ul and 110 RLU/50ul and 130 RLU/50ul (2×) and 170 RLU/50ul | RLU/ml (×100) (M. tuberculosis H37Rv [5]; drug conc. 1.56): 43.8 RLU/ml (×100) | RLU/50ul (average) (M. tuberculosis H37Rv [5]; [11]): 383 RLU/50ul and 137 RLU/50ul (2×) | concentration with significant antitubercular effect (M. tuberculosis H37Rv [5]; luminescence-based assay): 1.56 µg/mL and 0.78 µg/mL | RLU/50ul (replicates1-3), single values (XDR M. tuberculosis [6]): 50 RLU/50ul and 140 RLU/50ul and 80 RLU/50ul and 90 RLU/50ul (2×) and 120 RLU/50ul and 70 RLU/50ul and 130 RLU/50ul and 40 RLU/50ul and 260 RLU/50ul and 290 RLU/50ul and 430 RLU/50ul and 420 RLU/50ul and 460 RLU/50ul and 330 RLU/50ul and 390 RLU/50ul and 410 RLU/50ul and 220 RLU/50ul and 640 RLU/50ul and 720 RLU/50ul and 540 RLU/50ul and 550 RLU/50ul and 580 RLU/50ul and 450 RLU/50ul (2×) and 590 RLU/50ul and 630 RLU/50ul | concentration with significant antitubercular effect (XDR M. tuberculosis [6]): 0.39 µg/mL | CC50 (in vitro [7]; A549): > 500 µg/mL | CC50 (in vitro [7]; HEK-293): > 500 µg/mL | CC50 (in vitro [7]; SH-SY5Y): > 500 µg/mL | CC50 (in vitro [7]; THP-1): > 500 µg/mL | CC50 (in vitro [8]; L929): > 500 µg/mL | CC50 (in vitro [8]; Raw264.7): > 500 µg/mL | beta set-significance analysis, pair-wise comparison of gut microbiome (intestinal microbiome): not significant | difference in phylum or class level taxa compared to drug-free group (intestinal microbiome): did not significantly differ | phylogenetic diversity compared to drug-free control group (intestinal microbiome): no significant change | MIC (M. aubagnense): > 100 µg/mL | MIC (M. bovis): 0.8 µg/mL (≈ 1.72 µM) | MIC (M. conceptionense): > 100 µg/mL | MIC (M. fortuitum): > 100 µg/mL | MIC (M. gilvum): > 100 µg/mL | MIC (M. heraklionease): > 100 µg/mL | MIC (M. kansasii): > 100 µg/mL | MIC (M. kyorinense): > 100 µg/mL | MIC (M. marinum): > 100 µg/mL | MIC (M. marseiliense): > 100 µg/mL | MIC (M. massiliense): > 100 µg/mL | MIC (M. peregrinum): > 100 µg/mL | MIC (M. smegmatis): > 100 µg/mL | MIC (M. xenopi): > 100 µg/mL
